From US20220031680A1, “Donecopride As Neuroprotective Agent In the Treatment of Neurodegenerative Diseases” (priority 2018, published 2022)
Marks after values point to notes of the source that are not given here.

Tests used:
[1] = system: Aβ42; assay: Aβ42 levels in brain extracts of 5×FAD mice (ELISA); assay type: in vivo, mouse; conditions: brain extract; 1 mg/kg i.p. twice a week for two months, 2 to 4 months of age
Procedure: Animal experiments were carried out in accordance with the Directive by the Council of the European Communities of Nov. 24, 1986 (86/609/EEC). All efforts were made to minimize animal suffering and to reduce the number of mice used. The generation of 5×FAD mice was described in Oakley et al. (2006) J. Neurosci. 26:10129-10140. These transgenic mice overexpress both human APP (695) harboring the Swedish (K670N, M671L), Florida (1716V) and London (V7171) familial AD (FAD) mutations and human Presenilin 1 (PS1) harboring the two FAD mutations M146L and L286V. Expression of both transgenes is regulated by neuronal-specific elements of the mouse Thy1 promoter. The 5×FAD strain (B6/SJL genetic background) was maintained by crossing hemizygous transgenic mice with B6/SJL F1 breeders. The 5×FAD strain (C57BL/6J genetic background) was maintained by crossing hemizygous transgenic mice with C57BL/6J F1 breeders. All animals were genotyped by PCR using tail genomic DNA. Transgenic and WT mice were bred in our animal facility, had access to food and water ad libitum and were housed under a 12 h light-dark cycle at 22-24° C. Female 5×FAD mice were used in this study. For each experiment, the age of mice is indicated in months (with a two-week range).
Compounds were resuspended in DMSO (37.5 μg/μl, stored at −20° C.) and freshly diluted 1:250 in 0.9% NaCl prior administration. Vehicle solution (0.9% NaCl, 0.4% DMSO) was used as control.
5×FAD mice received chronic treatments with drugs or vehicle according to 2 different protocols. In each experiment, drugs or vehicle solution were administered i.p. twice a week (1 mg/kg). In “Protocol 1”, mice (n=6-7 mice per group) were treated with compounds for two months, from 2 to 4 months of age. In “Protocol 2”, mice (n=7) were treated with compounds for three months, from 1 month to 4 months of age. At the end of each protocol, mice were anesthetized with a mixture of 100 mg/kg ketamine and 10 mg/kg xylazine in saline solution and perfused transcardially with PBS. Brains were quickly isolated on ice, the olfactory bulbs and cerebellum removed and the two hemispheres divided. […]
ELISA kits from IBL International (Hamburg, Germany) for the dosage of Aβ40 (human amyloid β (1-40) assay kit, #27713) or Aβ42 (human amyloid β (1-42) assay kit, #27719) were used according to the manufacturer's instructions. Reactions were read at 620 nm and 450 nm using an Infinite 2000 luminescence counter. The obtained values were normalized to the protein concentration of each sample, measured using a BCA protein assay (Sigma-Aldrich). […]
Aβ40 and Aβ42 were quantified from brain extract in soluble and insoluble fractions. […]

[2] = system: GFAP; assay: Astrogliosis (GFAP staining) in 5×FAD mouse brain; assay type: in vivo; conditions: 1 mg/kg twice a week for 3 months; for GFAP staining in frontal cortex or hippocampus: compared to controls; for decrease of GFAP staining in entorhinal brain slices: compared to vehicle
Procedure: 5×FAD mice received chronic treatments with drugs or vehicle according to 2 different protocols. In each experiment, drugs or vehicle solution were administered i.p. twice a week (1 mg/kg). In “Protocol 1”, mice (n=6-7 mice per group) were treated with compounds for two months, from 2 to 4 months of age. In “Protocol 2”, mice (n=7) were treated with compounds for three months, from 1 month to 4 months of age. At the end of each protocol, mice were anesthetized with a mixture of 100 mg/kg ketamine and 10 mg/kg xylazine in saline solution and perfused transcardially with PBS. Brains were quickly isolated on ice, the olfactory bulbs and cerebellum removed and the two hemispheres divided. One hemisphere was frozen on dry ice and stored at −80° C. for biochemical analysis, while the other was post-fixed in 4% PFA for immunohistochemistry (IHC).
Thirty-micrometer-thick sections were cut using a vibratome (Microm HM 650V, Thermo Scientific, Saint Herblain, France) and stored in cryoprotectant medium at −20° C. For the labeling of amyloid plaques, free-floating tissue sections of frontal cortex, hippocampus and entorhinal cortex (coordinates from the bregma: frontal cortex=1.98 mm, hippocampus=−1.94 mm, entorhinal cortex=−3.08 mm) were extensively washed in PBS and then incubated in blocking solution (PBS; 3% BSA; 0.1% Triton X-100) for 1 h. Sections were stained with Hoechst dye (1:1000, Life Technologies, Saint Aubin, France) for 15 minutes to detect cell nuclei and then with freshly prepared thioflavin T solution (#T3516-5G, Sigma-Aldrich) (final concentration: 0.01 mg/ml in blocking buffer) for 15 minutes. After washing in 70% ethanol for 5 minutes, samples were mounted on poly-lysine slides with coverslips. For GFAP (glial fibrillary acidic protein) staining, free-floating brain sections were blocked as before and incubated with polyclonal rabbit anti-GFAP (1:1000, Z0334, Dako, Les Ullis, France) at 4° C. overnight. After thioflavin T staining and washing with 70% ethanol, the secondary Alexafluor 594 goat anti-rabbit antibody (1:1000, A11012, Life Technologies) was added for 2 h. PBS washes and mounting were performed as described before.
Images were acquired with an Axiolmager Z1 microscope (Carl Zeiss S.A.S., Marly le Roi, France). Analysis of thioflavin T staining was performed blindly and data are presented as the mean number of particles per mm^2 in two to three tissue sections from the same brain area/animal (Image J software). GFAP expression was quantified using Image J software and results are expressed as area fractions.
28 female 5×FAD mice (C57BL/6J genetic background) were used in this study. Mice received vehicle or compounds (1 mg/kg) i.p., twice a week for three months, from 1 to 4 months of age.

| Structure (SMILES) | Aβ42, insoluble fraction (% of controls) [1] | Aβ42, soluble fraction (% of controls) [1] | GFAP staining in frontal cortex or hippocampus [2] | decrease of GFAP staining in entorhinal brain slices [2] [%] |
| --- | --- | --- | --- | --- |
| COc1cc(N)c(Cl)cc1C(=O)CCC1CCN(CC2CCCCC2)CC1 [Donecopride] | 67.85* % of controls | 65.93* % of controls | not significantly different | 54±10 |
| COc1cc(N)c(F)cc1C(=O)CCC1CCN(CC2CCCCC2)CC1 [Flucopride] | 73.16 % of controls | 30.19**** % of controls | not significantly different | 51±5 |
